We go through nine compounds from patent US5672609A, “Pyridine compounds, intermediates compositions and methods of use” (Eli Lilly and Company, priority 1996, dated 1997).

Holding throughout (assay type): in vivo, female Sprague Dawley rats
The test system of one assay is Serum cholesterol. Kind of assay: Serum cholesterol in ovariectomized rats, 4-day oral dosing (Table 1). Conditions: Rattus norvegicus, po, 96 h, OVX rats, daily for 4 days; for inhibition in vivo at 0.1 mg/kg: 0.1 mg/kg oral; for inhibition in vivo at 0.1 mg/kg / inhibition in vivo at 1 mg/kg / inhibition in vivo at 10 mg/kg / inhibition in vivo at 25 mg/kg: read-out: Serum Cholesterol (% dec. vs. OVX); for inhibition in vivo at 1 mg/kg: 1 mg/kg oral; for inhibition in vivo at 10 mg/kg: 10 mg/kg oral; for ED50: oral, dose column in mg/kg, read-out: ED50 (effective dose to dec. serum chol. by 50%); for inhibition in vivo at 25 mg/kg: 25 mg/kg oral. The text has this: (§1) Seventy-five day old female Sprague Dawley rats (weight range of 200 to 225 g) were obtained from Charles River Laboratories (Portage, Mich.). The animals were either bilaterally ovariectomized (OVX) or exposed to a sham surgical procedure at Charles River Laboratories, and then shipped after one week. Upon arrival, they were housed in metal hanging cages in groups of 3 or 4 per cage and had ad libitum access to food (calcium content approximately 0.5%) and water for one week. Room temperature was maintained at 22.2° ±1.7° C. with a minimum relative humidity of 40%. The photoperiod in the room was 12 hours light and 12 hours dark.
(§2) Dosing Regimen Tissue Collection. After a one week acclimation period (therefore, two weeks post-OVX) daily dosing with test compound was initiated. 17α-ethynyl estradiol or the test compound were given orally, unless otherwise stated, as a suspension in 1% carboxymethylcellulose or dissolved in 20% cyclodextrin. Animals were dosed daily for 4 days. Following the dosing regimen, animals were weighed and anesthetized with a ketamine: Xylazine (2:1, V:V) mixture and a blood sample was collected by cardiac puncture. The animals were then sacrificed by asphyxiation with CO2, the uterus was removed through a midline incision, and a wet uterine weight was determined.
Cholesterol Analysis. Blood samples were allowed to clot at room temperature for 2 hours, and serum was obtained following centrifugation for 10 minutes at 3000 rpm. Serum cholesterol was determined using a Boehringer Mannheim Diagnostics high performance cholesterol assay. Briefly the cholesterol was oxidized to cholest-4-en-3-one and hydrogen peroxide. The hydrogen peroxide was then reacted with phenol and 4-aminophenazone in the presence of peroxidase to produce a p-quinone imine dye, which was read spectrophotometrically at 500 nm. Cholesterol concentration was then calculated against a standard curve. The entire assay was automated using a Biomek Automated Workstation.
(§3) Data presented in Table 1 below show comparative results among ovariectomized rats, rats treated with 17α-ethynyl estradiol (EE2; an orally available form of estrogen), and rats treated with certain compounds of the present invention. […] This uterine response to estrogen is well recognized in the art.
(§4) The data presented in Table 1 below reflects the response of 5 to 6 rats per treatment.

For a further assay, the system named is uterus. As to the kind of experiment: Uterine weight in ovariectomized rats, 4-day oral dosing (Table 1). Conditions: Rattus norvegicus, po, 96 h, OVX rats, daily for 4 days, read-out: Uterine Wt. (% inc. vs. OVX); for change in vivo at 0.1 mg/kg: 0.1 mg/kg oral; for change in vivo at 1 mg/kg: 1 mg/kg oral; for change in vivo at 10 mg/kg: 10 mg/kg oral; for change in vivo at 25 mg/kg: 25 mg/kg oral. On the procedure: In the examples illustrating the methods, a post-menopausal model was used in which effects of different treatments upon circulating lipids were determined.
as §1, §2, §3, §4

Assay [1] has as its system Uterine Eosinophil Peroxidase (EPO). As to the kind of experiment: Uterine Eosinophil Peroxidase (EPO) Assay (Table 1). On the set-up: key to Uterine EPO (V. max): Vmax of absorbance increase at 450 nm, monitored over 1 min. Conditions: OVX rats, daily for 4 days.
Source text: as §1, §2
Uterine Eosinomhil Peroxidase (EPO) Assay. Uteri were kept at 4° C. until time of enzymatic analysis. The uteri were then homogenized in 50 volumes of 50 mM Tris buffer (pH-8.0) containing 0.005% Triton X-100. Upon addition of 0.01% hydrogen peroxide and 10 mM O-phenylenediamine (final concentrations) in Tris buffer, increase in absorbance was monitored for one minute at 450 nm. The presence of eosinophils in the uterus is an indication of estrogenic activity of a compound. The maximal velocity of a 15 second interval was determined over the initial, linear portion of the reaction curve.
As is expressed in the below data, estrogenicity also was assessed by evaluating the response of eosinophil infiltration into the uterus.
as §4

Each structure is given as a SMILES string.

Usually ED50 stands for the midpoint of the dose-response relation. Consider `COc1ccc(-c2ccc(-c3ccc(OC)cc3)c(-c3ccc(OCCN4CCCC4)cc3)n2)cc1` [Example 5, 2-[4-[2-(1-Pyrrolidinyl)ethoxy]phenyl]-3,6-bis(4-methoxyphenyl)pyridine], for which, in the assay on Serum cholesterol, the inhibition in vivo at 0.1 mg/kg was determined as 2.4%, the inhibition in vivo at 1 mg/kg was determined as 14%, the inhibition in vivo at 10 mg/kg came to 23.5% and the ED50 was greater than 10 mg/kg. In addition, in the assay on uterus, the change in vivo at 0.1 mg/kg is -6.5%, the change in vivo at 1 mg/kg is -7.6% and the change in vivo at 10 mg/kg turned out to be 27.2%. The “Uterine EPO (V. max)” value in assay [1] (0.1 mg/kg oral) was determined as 4.5. The “Uterine EPO (V. max)” value in assay [1] (1 mg/kg oral) is recorded as 4.2. Besides, the “Uterine EPO (V. max)” value in assay [1] (10 mg/kg oral) came out at 23.1.

On to `COc1ccc(-c2ccc(C)nc2-c2ccc(OCCN(C)C)cc2)cc1` [Example 1, 2-[4-[2-(1-N,N-Dimethylamino)ethoxy]phenyl]-3-(4-methoxyphenyl)-6-methylpyridine], for which, in the assay on Serum cholesterol, the inhibition in vivo at 1 mg/kg was determined as 15%, the inhibition in vivo at 10 mg/kg came to 14.9%, the inhibition in vivo at 25 mg/kg came out at 22.2% and the ED50 is greater than 1000 mg/kg. In addition, in the assay with uterus, the change in vivo at 1 mg/kg turned out to be 0.6%, the change in vivo at 10 mg/kg was 2.6% and the change in vivo at 25 mg/kg worked out at 5.2%. Moreover, the “Uterine EPO (V. max)” value in assay [1] (1 mg/kg oral) was determined as 2.9. Further, the “Uterine EPO (V. max)” value in assay [1] (10 mg/kg oral) came to 2.5. Besides, the “Uterine EPO (V. max)” value in assay [1] (25 mg/kg oral) is listed as 2.3.

As for `Oc1ccc(-c2ccc(-c3ccccc3)nc2-c2ccc(OCCN3CCCC3)cc2)cc1` [Example 13, 2-[4-[2-(1-Pyrrolidinyl)ethoxy]phenyl]-3-(4-hydroxyphenyl)-6-phenylpyridine], in the assay on Serum cholesterol, the inhibition in vivo at 0.1 mg/kg came out at 1.8%, the inhibition in vivo at 1 mg/kg amounted to 53.8%, the inhibition in vivo at 10 mg/kg came out at 36.8% and the ED50 was less than 1 mg/kg. For the same compound, in the assay with uterus, the change in vivo at 0.1 mg/kg came out at 23.8%, the change in vivo at 1 mg/kg came out at 54%, the change in vivo at 10 mg/kg is 38.8% and the change in vivo at 25 mg/kg worked out at 35.5%. Also, the “Uterine EPO (V. max)” value in assay [1] (0.1 mg/kg oral) came out at 4.5.

On to `COc1ccc(-c2ccc(C)nc2-c2ccc(OCCN3CCCCC3)cc2)cc1` [Example 7, 2-[4-[2-(1-Piperidinyl)ethoxy]phenyl]-3-(4-methoxyphenyl)-6-methylpyridine], for which, in the assay with Serum cholesterol, the inhibition in vivo at 0.1 mg/kg was 23.2% and the inhibition in vivo at 25 mg/kg is -1.2%. In addition, the change in vivo at 25 mg/kg with uterus is -5.6%. Further, in assay [1] (25 mg/kg oral), the “Uterine EPO (V. max)” value is given as 3.6.

`COc1ccc(-c2ccc(C)nc2-c2ccc(OCCN3CCOCC3)cc2)cc1` [Example 3, 2-[4-[2-(4-Morpholinyl)ethoxy]phenyl]-3-(4-methoxyphenyl)-6-methylpyridine]: in the assay with Serum cholesterol, the inhibition in vivo at 1 mg/kg was found to be 4.5%, the inhibition in vivo at 10 mg/kg turned out to be 1.4%, the inhibition in vivo at 25 mg/kg was -11.6% and the ED50 is greater than 10 mg/kg. For the same compound, in the assay on uterus, the change in vivo at 1 mg/kg was determined as 4.9%, the change in vivo at 10 mg/kg was -6.1% and the change in vivo at 25 mg/kg was -2.3%. The “Uterine EPO (V. max)” value in assay [1] (1 mg/kg oral) stood at 10.8. In addition, the “Uterine EPO (V. max)” value in assay [1] (10 mg/kg oral) turned out to be 6. Further, the “Uterine EPO (V. max)” value in assay [1] (25 mg/kg oral) is listed as 3.8.

Turning to `Cc1ccc(-c2ccc(O)cc2)c(-c2ccc(OCCN3CCCCC3)cc2)n1` [Example 10, 2-[4-[2-(1-Piperidinyl)ethoxy]phenyl]-3-(4-hydroxyphenyl)-6-methylpyridine], in the assay with Serum cholesterol, the inhibition in vivo at 1 mg/kg is 8.4%, the inhibition in vivo at 10 mg/kg is 1.7%, the inhibition in vivo at 25 mg/kg amounted to 17.9% and the ED50 is greater than 10 mg/kg. Moreover, in the assay with uterus, the change in vivo at 1 mg/kg was found to be 3.4%, the change in vivo at 10 mg/kg is 7% and the change in vivo at 25 mg/kg was 47%. In addition, the “Uterine EPO (V. max)” value in assay [1] (1 mg/kg oral) worked out at 4.4. Moreover, in assay [1] (10 mg/kg oral), the “Uterine EPO (V. max)” value was 3.4. In addition, the “Uterine EPO (V. max)” value in assay [1] (25 mg/kg oral) came out at 6.8.

As to `COc1ccc(-c2ccc(C)nc2-c2ccc(OCCN3CCCC3)cc2)cc1` [Example 2, 2-[4-[2-(1-Pyrrolidinyl)ethoxy]phenyl]-3-(4-methoxyphenyl)-6-methylpyridine], in the assay with Serum cholesterol, the inhibition in vivo at 1 mg/kg was -23.6%, the inhibition in vivo at 10 mg/kg is -33.5%, the inhibition in vivo at 25 mg/kg came out at 9.7% and the ED50 was greater than 10 mg/kg. In the assay on uterus, the change in vivo at 1 mg/kg was 12.7%, the change in vivo at 10 mg/kg was -12.5% and the change in vivo at 25 mg/kg was found to be 19.5%. For the same compound, the “Uterine EPO (V. max)” value in assay [1] (1 mg/kg oral) is recorded as 6.6. For the same compound, the “Uterine EPO (V. max)” value in assay [1] (10 mg/kg oral) was determined as 5.9. For the same compound, the “Uterine EPO (V. max)” value in assay [1] (25 mg/kg oral) is given as 59.8.

On to `Cc1ccc(-c2ccc(O)cc2)c(-c2ccc(OCCN(C)C)cc2)n1` [Example 8, 2-[4-[2-(N,N-Dimethylamino)ethoxy]phenyl]-3-(4-hydroxyphenyl)-6-methylpyridine], for which, in the assay on Serum cholesterol, the inhibition in vivo at 1 mg/kg is 15.7%, the inhibition in vivo at 10 mg/kg amounted to 1.5%, the inhibition in vivo at 25 mg/kg was 46.4% and the ED50 was 26 mg/kg. For the same compound, in the assay with uterus, the change in vivo at 1 mg/kg was -1.5%, the change in vivo at 10 mg/kg was -1% and the change in vivo at 25 mg/kg was determined as 41.6%. Also, the “Uterine EPO (V. max)” value in assay [1] (1 mg/kg oral) was 5. In addition, the “Uterine EPO (V. max)” value in assay [1] (10 mg/kg oral) came to 6.7. Further, the “Uterine EPO (V. max)” value in assay [1] (25 mg/kg oral) is recorded as 58.6.

For `Cc1ccc(-c2ccc(O)cc2)c(-c2ccc(OCCN3CCOCC3)cc2)n1` [Example 11, 2-[4-[2-(4-Morpholinyl)ethoxy]phenyl]-3-(4-hydroxyphenyl)-6-methylpyridine], in the assay on Serum cholesterol, the inhibition in vivo at 1 mg/kg is 16%, the inhibition in vivo at 10 mg/kg was 18.2%, the inhibition in vivo at 25 mg/kg was -3.6% and the ED50 was greater than 10 mg/kg. In the assay on uterus, the change in vivo at 1 mg/kg is -0.8%, the change in vivo at 10 mg/kg was 27% and the change in vivo at 25 mg/kg stood at 5%. Also, in assay [1] (1 mg/kg oral), the “Uterine EPO (V. max)” value amounted to 4.8. Also, in assay [1] (10 mg/kg oral), the “Uterine EPO (V. max)” value was 4.9. The “Uterine EPO (V. max)” value in assay [1] (25 mg/kg oral) was 4.4.
